Legend:
[1] = Metabolism studies in humans; format: in vivo; conditions: in man (also not in any animal species used in toxicology studies)
From the text: (§1) Psychotropic pyridylmethyl -piperazine and -piperidine derivatives are disclosed in EP 0 908 458. […] By now it is very well known that N-oxides are metabolites of many tertiary amines, and in most cases are also intermediates between tertiary amines and their N-dealkylated analogs. Most, but not all, tertiary amine drugs give rise to N-oxides. For instance, this is the case with morphine, imipramine, promazine, cinnarizine and nicotine, to name just a few. How much N-oxidation takes place varies from trace amounts to a near quantitative conversion. […] The most famous example of these is chlordiazepoxide (Librium®), one of the most frequently used drugs in psychiatric and general medicine. […] Some N-oxides undergo nearly quantitative reductive conversion to the corresponding tertiary amines and in other cases the conversion is a mere trace reaction or even completely absent (Bickel, 1969). Thus, the formation of N-oxides and their corresponding tertiary amines is unpredictable. […] When they are, the reaction can be a mere trace or nearly quantitative.

Histamine-H1 = Histamine-H1 (Homo sapiens, UniProt P35367); experiment: In vitro receptor affinity, Histamine-H1; format: binding; conditions: radioligand [3H]-pyrilamine, read-out: K1 (in vitro receptor affinity)
Chain of Histamine-H1 (P35367 whole entry): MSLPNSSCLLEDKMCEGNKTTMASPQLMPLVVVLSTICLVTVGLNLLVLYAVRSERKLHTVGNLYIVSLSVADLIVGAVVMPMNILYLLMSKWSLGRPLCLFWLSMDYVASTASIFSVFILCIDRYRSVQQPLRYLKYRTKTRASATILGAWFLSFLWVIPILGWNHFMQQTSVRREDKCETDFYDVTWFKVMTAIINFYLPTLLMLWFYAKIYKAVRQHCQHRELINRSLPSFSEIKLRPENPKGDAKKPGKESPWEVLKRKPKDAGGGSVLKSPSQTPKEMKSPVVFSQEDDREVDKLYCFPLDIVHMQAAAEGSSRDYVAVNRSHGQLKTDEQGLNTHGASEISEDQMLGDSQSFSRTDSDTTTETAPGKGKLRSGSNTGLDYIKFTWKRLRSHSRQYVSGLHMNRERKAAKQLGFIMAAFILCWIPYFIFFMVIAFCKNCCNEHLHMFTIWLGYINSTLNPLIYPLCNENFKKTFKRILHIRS
Experimental: (§2) ln vitro affinity for neurotransmitter receptors: The binding data collected below were either obtained by CE REP (128, rue Danton, 92500 Rueil-Malmaison, France) or at Solvay Pharmaceuticals B.V. (C. J. van Houtenlaan 36, 1381 CP Weesp, The Netherlands), using well documented standard procedures. The affinities for dopamine-D2 and 5-HT1A receptors for instance, were measured as described by Creese (1997) and Gozlan (1983) respectively.

[2] = Volume of distribution measured in mice; format: in vivo; conditions: for VD in liters per kilograms: measured in mice; for Vd: plasma, calculated for an average person weighing 70 kg from mouse VD
Experimental: The volume of distribution (VD), also known as the ‘apparent volume of distribution’, is a pharmacological term used to quantify the distribution of a drug throughout the body after oral or parenteral dosing. It is defined as the volume in which the amount of drug would need to be uniformly distributed in to produce the observed concentration (Widmark, 1919).
The volume of distribution of SLV313 and its pyridine N-oxide was measured in mice, using the standard procedure well known in the art:
The volume of distribution is not a physiological volume, but rather the ratio between the total amount of drug in the body and its concentration in plasma. It is generally accepted that the volume of distribution is more or less the same across species, making it a parameter that, when measured in laboratory animals, has a high predictive value towards man.

[3] = Toxicological studies, plasma of rats; format: in vivo; conditions: rats dosed with SLV313
From the text: as §1

5-HT reuptake = 5-HT reuptake (Homo sapiens, UniProt P31645); experiment: In vitro receptor affinity, 5-HT reuptake; format: binding; conditions: radioligand [3H]-paroxetine, read-out: K1 (in vitro receptor affinity)
Chain of 5-HT reuptake (P31645 whole entry): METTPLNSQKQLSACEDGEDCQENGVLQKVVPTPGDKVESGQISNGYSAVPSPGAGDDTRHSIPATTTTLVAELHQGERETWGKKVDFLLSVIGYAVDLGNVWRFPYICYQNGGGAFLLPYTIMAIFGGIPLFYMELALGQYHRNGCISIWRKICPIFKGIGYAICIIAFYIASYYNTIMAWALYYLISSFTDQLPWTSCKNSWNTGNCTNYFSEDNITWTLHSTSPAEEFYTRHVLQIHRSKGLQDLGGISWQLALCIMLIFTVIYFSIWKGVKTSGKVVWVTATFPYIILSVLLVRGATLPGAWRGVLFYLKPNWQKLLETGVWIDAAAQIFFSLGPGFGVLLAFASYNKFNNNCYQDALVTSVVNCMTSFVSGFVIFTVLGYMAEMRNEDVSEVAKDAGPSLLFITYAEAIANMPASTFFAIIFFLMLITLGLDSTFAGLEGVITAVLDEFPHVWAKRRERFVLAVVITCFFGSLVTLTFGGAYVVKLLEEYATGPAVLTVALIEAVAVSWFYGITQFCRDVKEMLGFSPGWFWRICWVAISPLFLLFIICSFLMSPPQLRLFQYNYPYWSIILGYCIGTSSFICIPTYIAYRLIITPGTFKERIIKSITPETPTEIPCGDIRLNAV
Experimental: as §2

[4] = Plasma concentrations in mice after i.v. or p.o. administration, blood analyzed by LC-MS; format: in vivo; conditions: i.v. or p.o.
Experimental: The LC-MS system consists of 2 Perkin elmer series 200 micro pumps. The pumps were connected to each other by a 50 pI tee mixer, and connected to a Gilson 215 auto sampler. The method was as follows:
The auto sampler was connected to a Waters Atlantis C18 30*4.6 mm column with 3 μm particles. The column was thermo stated in a Perkin Elmer series 200 column oven at 40° C. The column was connected to a Perkin Elmer series 200 UV meter with a 2.7 μl flowcel. The wavelength was set to 254 nm. The UV meter was connected to a Sciex API 150EX mass spectrometer. The mass spectrometer had the following parameters: Scanrange:150-900 a.m.u., polarity: positive; scan mode: profile; resolution Q1: UNIT; step size: 0.10 a.m.u.; time per scan: 0.500 sec; NEB: 10; CUR: 10; IS: 5200; TEM: 325; DF: 30; FP: 225 and EP: 10. The light scattering detector was connected to the Sciex API 150. The light scattering detector was a Sedere Sedex 55 operating at 50° C. and 3 bar N2. The complete system was controlled by a G3 powermac.
For oral (p.o.) administration: to the desired quantity (0.5-5 mg) of the solid test compound in a glass tube, some glass beads were added and the solid was milled by vortexing for 2 minutes. After addition of 1 ml of a solution of 1% methylcellulose in water and 2% (v/v) of Poloxamer 188 (Lutrol F68), the compound was suspended by vortexing for 10 minutes. The pH was adjusted to 7. […]

[5] = Toxicological studies, plasma of dogs; format: in vivo; conditions: dogs dosed with SLV313
From the text: as §1

human D2 receptors = biological target: T1, human D2 receptors (Homo sapiens, UniProt P14416); experiment: In vitro functional antagonism at D2 receptors, adenylate cyclase in CHO cell-lines; format: cell-based; conditions: CHO cell-lines expressing cloned receptor; read-out: Antagonism human D2 receptors, pA2 (converted)
T1 construct: expressed in transfected cells; host or cells: CHO
T1 sequence (P14416 whole entry): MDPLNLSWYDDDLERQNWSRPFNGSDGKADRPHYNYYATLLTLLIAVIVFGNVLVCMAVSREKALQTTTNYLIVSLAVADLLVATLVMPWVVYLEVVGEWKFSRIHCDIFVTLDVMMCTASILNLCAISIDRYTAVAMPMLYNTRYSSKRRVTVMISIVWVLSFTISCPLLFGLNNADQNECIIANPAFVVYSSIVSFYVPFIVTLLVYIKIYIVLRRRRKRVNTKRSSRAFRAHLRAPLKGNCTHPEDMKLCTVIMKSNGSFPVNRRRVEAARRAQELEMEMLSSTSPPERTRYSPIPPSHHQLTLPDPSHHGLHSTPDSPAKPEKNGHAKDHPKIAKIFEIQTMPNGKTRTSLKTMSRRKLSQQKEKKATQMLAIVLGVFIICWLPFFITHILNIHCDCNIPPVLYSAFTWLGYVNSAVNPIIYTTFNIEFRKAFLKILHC
Experimental: (§3) In vitro (ant)agonistic activity at human D2 receptors and 5-HT1A receptors was measured according to the methods described by Solomon (1974) and Weiss (1985) respectively, on the formation of adenylate cyclase in CHO cell-lines expressing these cloned receptors.

Serotonin-5-HT7 = Serotonin-5-HT7 (Homo sapiens, UniProt P34969); experiment: In vitro receptor affinity, Serotonin-5-HT7; format: binding; conditions: radioligand [3H]-LSD, read-out: K1 (in vitro receptor affinity)
Chain of Serotonin-5-HT7 (P34969 whole entry): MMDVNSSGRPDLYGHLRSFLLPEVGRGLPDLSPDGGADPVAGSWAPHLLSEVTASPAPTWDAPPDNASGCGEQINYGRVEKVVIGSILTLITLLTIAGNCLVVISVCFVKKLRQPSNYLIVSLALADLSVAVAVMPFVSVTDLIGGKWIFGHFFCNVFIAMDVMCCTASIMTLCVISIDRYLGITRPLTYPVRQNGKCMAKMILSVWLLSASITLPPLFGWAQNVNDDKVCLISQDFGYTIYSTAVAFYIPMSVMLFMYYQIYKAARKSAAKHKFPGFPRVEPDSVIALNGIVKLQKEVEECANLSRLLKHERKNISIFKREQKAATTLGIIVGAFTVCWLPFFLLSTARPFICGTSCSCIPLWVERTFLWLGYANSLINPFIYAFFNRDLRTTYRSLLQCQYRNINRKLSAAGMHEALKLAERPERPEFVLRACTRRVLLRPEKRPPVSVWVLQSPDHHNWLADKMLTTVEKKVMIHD
Experimental: as §2

[6] = test system: neurotransmitter receptors; experiment: Pharmacological profile in vitro (overall statement)
Experimental: as §2, §3

[7] = Pharmacological profile in vivo (overall statement); conditions: in vivo
Experimental: Lower lip retraction, an in vivo animal model for serotonin 5-HT1A receptor agonistic activity, was measured according to the method described by Berendsen (1989); Apomorphine-induced climbing behaviour in mice, an in vivo animal model for dopamine-D2 receptor antagonistic activity, was determined according to the method described by Costall (1978).

Dopamine-D3 = Dopamine-D3 (Homo sapiens, UniProt P35462); experiment: In vitro receptor affinity, Dopamine-D3; format: binding; conditions: radioligand [3H]-spiperone, read-out: K1 (in vitro receptor affinity)
Chain of Dopamine-D3 (P35462 whole entry): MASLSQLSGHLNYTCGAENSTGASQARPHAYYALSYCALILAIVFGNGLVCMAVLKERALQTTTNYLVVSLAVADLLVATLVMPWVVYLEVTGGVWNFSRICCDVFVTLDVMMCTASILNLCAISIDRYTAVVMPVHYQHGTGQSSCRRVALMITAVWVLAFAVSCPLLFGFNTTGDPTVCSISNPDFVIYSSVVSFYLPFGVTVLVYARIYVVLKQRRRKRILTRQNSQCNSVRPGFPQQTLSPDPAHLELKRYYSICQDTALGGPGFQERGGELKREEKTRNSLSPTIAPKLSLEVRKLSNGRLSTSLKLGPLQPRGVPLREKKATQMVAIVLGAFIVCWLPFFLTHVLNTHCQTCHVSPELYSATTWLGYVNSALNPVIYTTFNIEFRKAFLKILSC
Experimental: as §2

Dopamine-D2 = Dopamine-D2 (Homo sapiens, UniProt P14416); experiment: In vitro receptor affinity, Dopamine-D2; format: binding; conditions: radioligand [3H]-spiperone, read-out: K1 (in vitro receptor affinity)
Chain of Dopamine-D2 (P14416 whole entry): as the sequence (P14416 whole entry) above
Experimental: as §2

| SMILES | piperazine-N-oxide as a metabolite [1] | Ki (Histamine-H1) [nM] | VD in liters per kilograms [2] [liters per kilograms] | Vd [2] [L] | pyridine-N-oxide in plasma [3] | Ki (5-HT reuptake) [nM] | metabolism to piperazine-N-oxide [4] | pyridine-N-oxide in plasma [5] | Kb (human D2 receptors) [nM] | Ki (Serotonin-5-HT7) [nM] | melting point [°C] | pharmacological profile/activity in vitro relative to parent SLV313 [6] | pharmacological profile/potency in vivo relative to SLV313 [7] | Ki (Dopamine-D3) [nM] | Ki (Dopamine-D2) [nM] |
| --- | --- | --- | --- | --- | --- | --- | --- | --- | --- | --- | --- | --- | --- | --- | --- |
| Fc1ccc(-c2cncc(CN3CCN(c4cccc5c4OCCO5)CC3)c2)cc1 [SLV313, 3-[[4-(2,3-dihydro-1,4-benzodioxin-5-yl)-1-piperazinyl]methyl]-5-(4-fluorophenyl)pyridine, reference compound] | has not been detected as a metabolite | > 1000 | 5 | 350 | could not be demonstrated | > 1000 | not metabolized to its piperazine-N-oxide | could not be demonstrated | 0.501 | 63 |  |  |  |  |  |
| [O-][n+]1cc(CN2CCN(c3cccc4c3OCCO4)CC2)cc(-c2ccc(F)cc2)c1 [pyridine N-oxide, 1-(2,3-dihydro-1,4-benzodioxin-5-yl)-4-[[5-(4-fluorophenyl)-1-oxido-3-pyridinyl]methyl]-piperazine] |  | > 10000 | 1 | 70 |  | 320 |  |  | 0.631 | 100 | 171 | identical | identical | 8 | 5 |

From patent publication US20070275977A1, “N-OXIDES OF PYRIDYLMETHYL -PIPERAZINE AND -PIPERIDINE DERIVATIVES” (priority 2006, published 2007)
